Laboratory results from BindingDB's records for doi:10.1021/jm981129a (Julius-Maximilians University Würzburg, 1999).

Target: Nitric oxide synthase, brain (Sus scrofa)
Test: Inhibitory activity against Nitric oxide synthase (derived from porcine brain cerebellum)

IC50: 180 µM
SMILES: Nc1nc(N)c2nc(COc3ccccc3)cnc2n1 [6-Phenoxymethyl-pteridine-2,4-diamine]
